Experiments:
SB574TL based sugar beet = assay: Field trial, phytotoxicity scoring on homozygous SB574TL mutant sugar beet; format: in vivo, Beta vulgaris; settings: BBCH 14
Description: Based on SB574TL, F4—F6 seeds conferring the mutant allele of the endogenous ALS gene in the homozygous state were applied for further testing.

KLARINA = assay: Field trial, phytotoxicity scoring on ALS inhibitor sensitive reference variety KLARINA; settings: BBCH 14
Description: (§3) The water quantity applied in the various applications equaled 200 l/ha. At 8, 14, 16, 17, 28, and 31 days (as indicated in the various Tables) after application (DAA) of the respective ALS inhibitor herbicide(s), the damages (phytotoxicity/phyto) on the different sugar beet plants were scored according to the scale from 0% to 100%.
(§4) In this context, “0%” means “no phytotoxicity/phyto” and “100%” means plants were completely killed.

BERETTA = assay: Field trial, phytotoxicity scoring on ALS inhibitor sensitive reference variety BERETTA; format: in vivo, Beta vulgaris; settings: BBCH 14
Description: as §3, §4

[1] = system: regenerated plants from foramsulfuron tolerant cell culture (SB574TL); assay: Greenhouse herbicide treatment of plants regenerated from the foramsulfuron tolerant cell culture
Protocol: From this clone (SB574TL), shoots were regenerated in presence of the ALS inhibitor herbicide and then the shoots were transferred to MS medium containing 0.05 mg/l Naphthalene acetic acid (NAA).
(§1) During the first 10-15 days after transfer into soil containing substrate the plants were kept in an environment with high air humidity. During and after they were weaned to normal greenhouse air humidity regimes the plants were kept in the greenhouse under artificial light (12 h) at 20+−3° C./15+−2° C. day/night temperatures.
(§2) The herbicide doses tested were equivalent to 7-70 g a.i./ha for foramsulfuron and 1-10 g a.i./ha for iodosulfuron-methyl-sodium.

[2] = system: sugar beet cell cultures (genotype 7T9044); assay: Selection of sugar beet cell colonies on foramsulfuron medium; format: cell-based, Beta vulgaris; settings: 3×10^−6 M of foramsulfuron in medium
Description: Sugar beet cell cultures were initiated from seedlings of a diploid sugar beet genotype 7T9044 (as, for example, described by Alexander Dovzhenko, PhD Thesis, Title: “Towards plastid transformation in rapeseed (Brassica napus L.) and sugarbeet (Beta vulgaris L.)”, Ludwig-Maximilians-Universität München, Germany, 2001). Callus obtained therefrom was exposed to 10^−7 M foramsulfuron. Surviving and growing cell colonies were numbered and transferred after 4-6 weeks onto fresh medium containing 3×10^−7 M of the inhibitor. One of these cell colonies was able to grow not only at this concentration of the inhibitor but even in presence of 3×10^−6 M of foramsulfuron [CAS RN 173159-57-4].

wild type plants = assay: Greenhouse herbicide treatment of plants regenerated from wild type cell cultures; settings: lowest doses tested (range 7-70 g a.i./ha foramsulfuron, 1-10 g a.i./ha iodosulfuron-methyl-sodium, mixtures 7:1)
Protocol: as §1, §2

COc1nc(C)nc(NC(=O)NS(=O)(=O)c2ccccc2I)n1.[Na] [(A1-41), 2-iodo-N-[(4-methoxy-6-methyl-1,3,5-triazinyl)carbamoyl]benzene-sulfonamide sodium salt]
% phyto (SB574TL based sugar beet; 30 g/ha, 8 days): 14% | % phyto (SB574TL based sugar beet; 30 g/ha, 14 days): 10% | % phyto (SB574TL based sugar beet; 30 g/ha, 28 days): 0% | % phyto (KLARINA; 30 g/ha, 8 days): 90% | % phyto (KLARINA; 30 g/ha, 14 days): 98% | % phyto (KLARINA; 30 g/ha, 28 days): 100%

COc1cc(OC)nc(NC(=O)NS(=O)(=O)c2ncccc2C2=NOCCO2)n1.[Na+] [(A1-87)]
% phyto (SB574TL based sugar beet; 15 g/ha, 8 days): 0% | % phyto (SB574TL based sugar beet; 15 g/ha, 14 days): 0% | % phyto (SB574TL based sugar beet; 15 g/ha, 28 days): 0% | % phyto (SB574TL based sugar beet; 30 gai/ha, 8 DAA): 0% | % phyto (SB574TL based sugar beet; 30 gai/ha, 17 DAA): 0% | % phyto (SB574TL based sugar beet; 30 gai/ha, 31 DAA): 0% | % phyto (KLARINA; 15 g/ha, 8 days): 90% | % phyto (KLARINA; 15 g/ha, 14 days): 97% | % phyto (KLARINA; 15 g/ha, 28 days): 99% | % phyto (KLARINA; 30 gai/ha, 8 DAA): 83% | % phyto (KLARINA; 30 gai/ha, 17 DAA): 100% | % phyto (KLARINA; 30 gai/ha, 31 DAA): 100%

COc1cc(OC)nc(Oc2cccc(Oc3nc(OC)cc(OC)n3)c2C(=O)O)n1 [Bispyribac-sodium (C1-1), bispyribac-sodium]
% phyto (SB574TL based sugar beet; 50 g/ha, 8 days): 23% | % phyto (SB574TL based sugar beet; 50 g/ha, 14 days): 30% | % phyto (SB574TL based sugar beet; 50 g/ha, 28 days): 0% | % phyto (KLARINA; 50 g/ha, 8 days): 90% | % phyto (KLARINA; 50 g/ha, 14 days): 98% | % phyto (KLARINA; 50 g/ha, 28 days): 99%

COc1ncc(F)c2nc(S(=O)(=O)Nc3c(F)cccc3F)nn12 [Florasulam (A3-3), florasulam]
% phyto (SB574TL based sugar beet; 10 g/ha, 8 days (Table 3)): 0% | % phyto (SB574TL based sugar beet; 10 g/ha, 16 days): 0% | % phyto (SB574TL based sugar beet; 10 g/ha, 38 days): 0% | % phyto (BERETTA; 10 g/ha, 8 days): 80% | % phyto (BERETTA; 10 g/ha, 16 days): 98% | % phyto (BERETTA; 10 g/ha, 38 days): 98%

COc1nn(C(=O)[N-]S(=O)(=O)c2ccccc2OC(F)(F)F)c(=O)n1C.[Na+] [Flucarbazone-sodium (A2-1), flucarbazone-sodium]
% phyto (SB574TL based sugar beet; 40 g/ha, 8 days (Table 3)): 0% | % phyto (SB574TL based sugar beet; 40 g/ha, 16 days): 0% | % phyto (SB574TL based sugar beet; 40 g/ha, 38 days): 0% | % phyto (BERETTA; 40 g/ha, 8 days): 80% | % phyto (BERETTA; 40 g/ha, 16 days): 89% | % phyto (BERETTA; 40 g/ha, 38 days): 89%

COc1cc(OC)nc(NC(=O)NS(=O)(=O)c2cc(NC=O)ccc2C(=O)N(C)C)n1 [Foramsulfuron (A1-13), foramsulfuron]
tolerance of regenerated plants to herbicide treatment ([1]; in vivo): tolerated even the highest herbicide doses | growth of selected cell colony (clone SB574TL) in presence of the inhibitor [2]: able to grow | % phyto (KLARINA; 25 g/ha, 8 days): 85% | % phyto (KLARINA; 25 g/ha, 14 days): 83% | % phyto (KLARINA; 25 g/ha, 28 days): 86% | % phyto (KLARINA; 50 g/ha, 8 days): 90% | % phyto (KLARINA; 50 g/ha, 14 days): 92% | % phyto (KLARINA; 50 g/ha, 28 days): 94% | effect of herbicide treatment on wild type plants (wild type plants): killed

COCc1cnc(C2=NC(C)(C(C)C)C(=O)N2)c(C(=O)O)c1 (centres unmarked) [Imazamox (B1-2), imazamox]
% phyto (SB574TL based sugar beet; 40 g/ha, 8 days): 0% | % phyto (SB574TL based sugar beet; 40 g/ha, 14 days): 0% | % phyto (SB574TL based sugar beet; 40 g/ha, 28 days): 0% | % phyto (KLARINA; 40 g/ha, 8 days): 90% | % phyto (KLARINA; 40 g/ha, 14 days): 97% | % phyto (KLARINA; 40 g/ha, 28 days): 99%

CC(C)C1(C)N=C(c2nc3ccccc3cc2C(=O)O)NC1=O (centres unmarked) [Imazaquin (B1-5), imazaquin]
% phyto (SB574TL based sugar beet; 100 g/ha, 8 days (Table 3)): 0% | % phyto (SB574TL based sugar beet; 100 g/ha, 16 days): 0% | % phyto (SB574TL based sugar beet; 100 g/ha, 38 days): 0% | % phyto (BERETTA; 100 g/ha, 8 days): 80% | % phyto (BERETTA; 100 g/ha, 16 days): 98% | % phyto (BERETTA; 100 g/ha, 38 days): 100%

COC(=O)c1ccc(I)cc1S(=O)(=O)[N-]C(=O)Nc1nc(C)nc(OC)n1.[Na+] [Iodosulfuron-methyl-sodium (A1-16), iodosulfuron-methyl-sodium]
tolerance of regenerated plants to herbicide treatment ([1]; highest doses tested (range 7-70 g a.i./ha foramsulfuron, 1-10 g a.i./ha iodosulfuron-methyl-sodium, mixtures in the ratio 7:1), greenhouse): tolerated even the highest herbicide doses | % phyto (SB574TL based sugar beet; 7 g/ha, 8 days): 0% | % phyto (SB574TL based sugar beet; 7 g/ha, 14 days): 0% | % phyto (SB574TL based sugar beet; 7 g/ha, 28 days): 0% | % phyto (SB574TL based sugar beet; 15 gai/ha, 8 DAA): 0% | % phyto (SB574TL based sugar beet; 15 gai/ha, 17 DAA): 0% | % phyto (SB574TL based sugar beet; 15 gai/ha, 31 DAA): 0% | % phyto (KLARINA; 7 g/ha, 8 days): 90% | % phyto (KLARINA; 7 g/ha, 14 days): 97% | % phyto (KLARINA; 7 g/ha, 28 days): 100% | % phyto (KLARINA; 15 gai/ha, 8 DAA): 83% | % phyto (KLARINA; 15 gai/ha, 17 DAA): 98% | % phyto (KLARINA; 15 gai/ha, 31 DAA): 100% | effect of herbicide treatment on wild type plants (wild type plants): killed

COC(=O)c1ccc(CNS(C)(=O)=O)cc1S(=O)(=O)NC(=O)Nc1nc(OC)cc(OC)n1 [Mesosulfuron-methyl (A1-17), mesosulfuron-methyl]
% phyto (KLARINA; 60 g/ha, 8 days): 90% | % phyto (KLARINA; 60 g/ha, 14 days): 97% | % phyto (KLARINA; 60 g/ha, 28 days): 99%

COc1cc(OC)n2nc(S(=O)(=O)Nc3c(Cl)ccc(C)c3Cl)nc2n1 [Metosulam (A3-5), metosulam]
% phyto (KLARINA; 30 g/ha, 8 days): 90% | % phyto (KLARINA; 30 g/ha, 14 days): 97% | % phyto (KLARINA; 30 g/ha, 28 days): 93%

COC(=O)c1ccccc1S(=O)(=O)NC(=O)Nc1nc(C)nc(OC)n1 [Metsulfuron-methyl (A1-28), metsulfuron-methyl]
% phyto (KLARINA; 8 g/ha, 8 days): 88% | % phyto (KLARINA; 8 g/ha, 14 days): 98% | % phyto (KLARINA; 8 g/ha, 28 days): 99%

COc1cc(OC)nc(NC(=O)NS(=O)(=O)c2ncccc2C(=O)N(C)C)n1 [Nicosulfuron (A1-20), nicosulfuron]
% phyto (SB574TL based sugar beet; 60 g/ha, 8 days): 0% | % phyto (SB574TL based sugar beet; 60 g/ha, 14 days): 0% | % phyto (SB574TL based sugar beet; 60 g/ha, 28 days): 0% | % phyto (KLARINA; 60 g/ha, 8 days): 90% | % phyto (KLARINA; 60 g/ha, 14 days): 98% | % phyto (KLARINA; 60 g/ha, 28 days): 100%

CCS(=O)(=O)c1cccnc1S(=O)(=O)NC(=O)Nc1nc(OC)cc(OC)n1 [Rimsulfuron (A1-26), rimsulfuron]
% phyto (KLARINA; 12.5 g/ha, 8 days): 81% | % phyto (KLARINA; 12.5 g/ha, 14 days): 85% | % phyto (KLARINA; 12.5 g/ha, 28 days): 76%

COC(=O)c1ccccc1S(=O)(=O)NC(=O)Nc1nc(C)cc(C)n1 [Sulfometuron-methyl (A1-27), sulfometuron-methyl]
% phyto (SB574TL based sugar beet; 60 g/ha, 8 days (Table 3)): 0% | % phyto (SB574TL based sugar beet; 60 g/ha, 16 days): 3% | % phyto (SB574TL based sugar beet; 60 g/ha, 38 days): 0% | % phyto (BERETTA; 60 g/ha, 8 days): 80% | % phyto (BERETTA; 60 g/ha, 16 days): 97% | % phyto (BERETTA; 60 g/ha, 38 days): 100%

COC(=O)c1csc(C)c1S(=O)(=O)NC(=O)n1nc(OC)n(C)c1=O [Thiencarbazone-methyl (A2-3), thiencarbazone-methyl]
% phyto (KLARINA; 15 g/ha, 8 days): 90% | % phyto (KLARINA; 15 g/ha, 14 days): 97% | % phyto (KLARINA; 15 g/ha, 28 days): 100% | % phyto (KLARINA; 30 g/ha, 8 days): 90% | % phyto (KLARINA; 30 g/ha, 14 days): 97% | % phyto (KLARINA; 30 g/ha, 28 days): 100%

COC(=O)c1sccc1S(=O)(=O)NC(=O)Nc1nc(C)nc(OC)n1 [Thifensulfuron-methyl (A1-29), thifensulfuron-methyl]
% phyto (KLARINA; 7.5 g/ha, 8 days): 90% | % phyto (KLARINA; 7.5 g/ha, 14 days): 98% | % phyto (KLARINA; 7.5 g/ha, 28 days): 100%

COc1nc(C)nc(NC(=O)NS(=O)(=O)c2ccccc2OCCCl)n1 [Triasulfuron (A1-30), triasulfuron]
% phyto (SB574TL based sugar beet; 30 g/ha, 8 days (Table 3)): 0% | % phyto (SB574TL based sugar beet; 30 g/ha, 16 days): 0% | % phyto (SB574TL based sugar beet; 30 g/ha, 38 days): 0% | % phyto (BERETTA; 30 g/ha, 8 days): 80% | % phyto (BERETTA; 30 g/ha, 16 days): 98% | % phyto (BERETTA; 30 g/ha, 38 days): 100%

COC(=O)c1ccccc1S(=O)(=O)NC(=O)N(C)c1nc(C)nc(OC)n1 [Tribenuron-methyl (A1-31), tribenuron-methyl]
% phyto (KLARINA; 30 g/ha, 8 days): 91% | % phyto (KLARINA; 30 g/ha, 14 days): 98% | % phyto (KLARINA; 30 g/ha, 28 days): 100%

COc1cc(OC)nc(NC(=O)NS(=O)(=O)c2ncccc2OCC(F)(F)F)n1 [Trifloxisulfuron-sodium (A1-32), trifloxysulfuron]
% phyto (SB574TL based sugar beet; 15 g/ha, 8 days (Table 3)): 0% | % phyto (SB574TL based sugar beet; 15 g/ha, 16 days): 0% | % phyto (SB574TL based sugar beet; 15 g/ha, 38 days): 0% | % phyto (BERETTA; 15 g/ha, 8 days): 80% | % phyto (BERETTA; 15 g/ha, 16 days): 98% | % phyto (BERETTA; 15 g/ha, 38 days): 100%

Reference: patent publication US20220275391A1, “METHODS OF USING ALS INHIBITOR HERBICIDES FOR CONTROL OF UNWANTED VEGETATION IN ALS INHIBITOR HERBICIDE TOLERANT BETA VULGARIS PLANTS” (priority 2010, published 2022)
